Legend:
mu opiate receptor = target: T1, mu opiate receptor (Rattus norvegicus, UniProt P33535); assay: Inhibition of [3H]DAMGO binding to the mu opiate receptor in rat brain homogenates; parameters: Mean: unit not given beside the values; conditions: 0.08 mg of compound per milliliter, 7 nM 3H-labeled DAMGO, rat brain membranes; for % Bound: [3H]DAMGO bound; for Mean: mean bound radioactivity of [3H]DAMGO; for Minus NSB*: mean minus non-specific binding; for % Inhibition: percent inhibition of DAMGO binding
T1 construct: from tissue; host or cells: rat brain membranes/homogenate
Outline: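 Members of an imidazo-imidazolone compound library were tested for blocking binding of [^3H]DAMGO, a mu opiate receptor-specific ligand, to rat brain membranes. Each 0.65 mL tube held 0.08 mg of compound mixture per milliliter, 0.5 mL membrane suspension (0.1 mg of protein) and 7 nM ^3H-labeled DAMGO (36 Ci/mmol) in 50 mM Tris-HCl buffer (pH 7.4).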

kappa opiate receptor = target: T2, kappa opiate receptor (Cavia porcellus, UniProt P41144); assay: Inhibition of tritiated U69,593 binding to the kappa opiate receptor in guinea pig brain homogenates; parameters: Mean: unit not given beside the values; conditions: 3 nm tritiated U69,593, guinea pig brain membranes; for % Bound: [3H]U69,593 bound; for % Inhibition: inhibition of [3H]U69,593 binding; for Mean: mean bound radioactivity of [3H]U69,593, 2.5 hours 25° C.; for Minus NSB: mean minus non-specific binding
T2 construct: guinea pig cortices and cerebella were homogenized in 40 mL of Buffer A; from tissue; host or cells: guinea pig cortices and cerebella, crude membrane suspension
Outline: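 Guinea pig cortex and cerebellum membranes in 50 mM Tris-HCl pH 7.4 incubated with 3 nM [³H]U69,593 for 2.5 h at 25 °C, then filtered and bound radioactivity counted. Unlabelled U50,488 served as competitor for standard curve and nonspecific binding.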

T1 sequence (P33535 whole entry): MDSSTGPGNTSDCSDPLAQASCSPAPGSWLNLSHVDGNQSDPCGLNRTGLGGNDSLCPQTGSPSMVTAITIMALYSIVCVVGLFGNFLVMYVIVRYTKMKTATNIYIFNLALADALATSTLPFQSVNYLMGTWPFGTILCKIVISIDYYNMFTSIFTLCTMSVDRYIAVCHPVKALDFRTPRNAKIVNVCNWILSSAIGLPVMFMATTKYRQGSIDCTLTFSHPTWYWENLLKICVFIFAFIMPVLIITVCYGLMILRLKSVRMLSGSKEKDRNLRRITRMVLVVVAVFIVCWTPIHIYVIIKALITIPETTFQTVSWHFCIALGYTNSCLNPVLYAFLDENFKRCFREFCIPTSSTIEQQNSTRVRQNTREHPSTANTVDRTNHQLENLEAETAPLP
T2 sequence (P41144 whole entry): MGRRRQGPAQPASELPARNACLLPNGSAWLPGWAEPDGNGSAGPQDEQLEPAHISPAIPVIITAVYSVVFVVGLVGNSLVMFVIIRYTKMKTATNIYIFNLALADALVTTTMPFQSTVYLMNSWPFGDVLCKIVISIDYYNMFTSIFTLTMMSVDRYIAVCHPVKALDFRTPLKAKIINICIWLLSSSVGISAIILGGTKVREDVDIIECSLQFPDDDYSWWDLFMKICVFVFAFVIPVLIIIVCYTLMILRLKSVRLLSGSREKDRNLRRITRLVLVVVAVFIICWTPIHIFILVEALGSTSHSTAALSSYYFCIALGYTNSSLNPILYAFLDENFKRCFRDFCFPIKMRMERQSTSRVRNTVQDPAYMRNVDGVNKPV

Structure (SMILES)	% Bound (mu opiate receptor) [%]	Mean (mu opiate receptor)	Minus NSB* (mu opiate receptor)	% Inhibition (mu opiate receptor) [%]	% Bound (kappa opiate receptor) [%]	% Inhibition (kappa opiate receptor) [%]	Mean (kappa opiate receptor)	Minus NSB (kappa opiate receptor)
CCCCC1C(=O)Nc2c(C(C)C)nc(C)n21 (stereo not drawn) [Pool 11]	47	756.05	448.05	53	80.034	19.966	1736.15	829.15
CCCC1C(=O)Nc2c(C(C)C)nc(C)n21 (stereo not drawn) [Pool 12]	72	998.7	690.70	28	74.706	25.294	1680.95	773.95
Cc1nc(C(C)C)c2n1C(C)C(=O)N2 (stereo not drawn) [Pool 18]	71	989.15	681.15	29	88.016	11.984	1818.85	911.85
Cc1nc(C(C)C)c2n1C(C(C)C)C(=O)N2 (stereo not drawn) [Pool 19]	75	1027.75	719.75	25	84.580	15.420	1783.25	876.25
Cc1nc(C(C)C)c2n1C(CC(C)C)C(=O)N2 (stereo not drawn) [Pool 20]	50	787.6	479.60	50	68.996	31.004	1621.8	714.80
CCC(C)C1C(=O)Nc2c(C(C)C)nc(C)n21 (stereo not drawn) [Pool 21]	55	833.5	525.50	45	56.921	43.079	1496.7	589.70
CCCCC1C(=O)Nc2c(C(C)C)nc(C)n21 (stereo not drawn) [Pool 27]	59	871.25	563.25	41	79.855	20.145	1734.3	827.30
CCCC1C(=O)Nc2c(C(C)C)nc(C)n21 (stereo not drawn) [Pool 28]	66	932.9	624.90	34	67.601	32.399	1607.35	700.35
Cc1nc(C(C)C)c2n1C(CC1CCCCC1)C(=O)N2 (stereo not drawn) [Pool 29]	61	891.65	583.65	39	88.277	11.723	1821.55	914.55
Cc1nc(C(C)C)c2n1C(Cc1ccccc1)C(=O)N2 (stereo not drawn) [Pool 30]	65	929.9	621.90	35	74.884	25.116	1682.8	775.80
Cc1ncc2n1C(C(C)C)C(=O)N2 (stereo not drawn) [Pool 34]	68	956.4	648.40	32	79.117	20.883	1726.65	819.65
Cc1nc(C)n2c1NC(=O)C2C(C)C (stereo not drawn) [Pool 35]	47	753.5	445.50	53	77.693	22.307	1711.9	804.90
Cc1nc(C(C)C)c2n1C(C(C)C)C(=O)N2 (stereo not drawn) [Pool 36]	66	940.6	632.60	34	84.976	15.024	1787.35	880.35
Cc1nc(CC(C)C)c2n1C(C(C)C)C(=O)N2 (stereo not drawn) [Pool 37]	66	932.9	624.90	34	62.973	37.027	1559.4	652.40
CCC(C)c1nc(C)n2c1NC(=O)C2C(C)C (stereo not drawn) [Pool 38]	40	687.75	379.75	60	68.639	31.361	1618.1	711.10
Cc1nc(CCCCN)c2n1C(C(C)C)C(=O)N2 (stereo not drawn) [Pool 41]	58	858.1	550.10	42	51.853	48.147	1444.2	537.20
Cc1nc(CCCNC(=N)N)c2n1C(C(C)C)C(=O)N2 (stereo not drawn) [Pool 42]	29	581.65	273.65	71	48.200	51.800	1406.35	499.35
CCCCc1nc(C)n2c1NC(=O)C2C(C)C (stereo not drawn) [Pool 44]	67	947.55	639.55	33	110.299	−10.299	2049.7	1142.70
CCCc1nc(C)n2c1NC(=O)C2C(C)C (stereo not drawn) [Pool 45]	62	902.55	594.55	38	85.275	14.725	1790.45	883.45
Cc1nc(CC2CCCCC2)c2n1C(C(C)C)C(=O)N2 (stereo not drawn) [Pool 46]	60	881.4	573.40	40	121.815	−21.815	2169	1262.00
Cc1nc(Cc2ccccc2)c2n1C(C(C)C)C(=O)N2 (stereo not drawn) [Pool 47]	62	897.8	589.80	38	104.469	−4.469	1989.3	1082.30

Source: patent US6545032B1, “Synthesis of [3,5,7]-H-imidazo[1,5-a] imidazol-2(3H)-one compounds” (Torrey Pines Institute for Molecular Studies, priority 1999, dated 2003)
